# Where two headings read alike, the source gives them in different places.
# Key:
# [1] = Tissue bio-distribution and tissue pharmacokinetics of DMA; type: in vivo, mouse; conditions: for concentration at 1 h / concentration at 2 h / concentration at 4 h / concentration at 6 h / concentration at 16 h / half-life / Tmax / concentration at 24 h / Cmax: Balb/c, mouse; for half-life / Tmax / Cmax: 100 mg/kg oral dose
# Experimental: Tissue samples were collected from the same mice from which blood samples were collected in both doses of DMA. Lung, liver, kidney, intestine, heart, spleen, brain were dissected and rinsed with phosphate buffer saline (PBS) and dried on blotting paper. 100 mg of tissue sample was homogenized for 20 s in chilled acetronitrile and water and further 700 μl chilled acetronitrile was added. The sample was centrifuged at 14000 rpm for 10 min and clear supernatant was collected for analysis on HPLC-MS/MS system.
# A standard DMA calibration from 1-1000 ng/ml with internal standard (20 ng/ml) was quantified. Sample analysis was performed on positive ionization mode LC-MS/MS with multiple reactions monitoring (MRM, m/z Q1/Q3) of DMA (m/z 235.1/412.0, retention time (RT) 5.3 min) and internal standard (m/z 227.1/396.0, RT 6.5 min) (Agilent 6410 series). A gradient method was employed to analyze the plasma samples using mobile phase A (0.1% formic acid in water) and mobile phase B (methanol). The B % was set as 30 (0 min), 90 (10-14 min), 30 (14-24 min) with flow rate of 0.3 ml/min. An injection volume of 10 μl was used for analysis.
# Peak tissue concentration (Cmax) of DMA and time to reach the Cmax (tmax) were read directly from the raw data by visual examination of mean tissue concentration-time profile. The tissue concentration-time data following oral dose were subjected to one-, two- and three-compartmental models using WinNonlin program (version 6.3; Certara Inc, Missouri, USA) to calculate the pharmacokinetic parameters. The pharmacokinetic models were compared according to maximal correlation between observed and predicted concentration, minimal sum of squared residuals, Akaike Information Criterion (AIC) and Schwarz Bayesian Criterion (SBC). However, the tissue concentration-time data following intravenous administration were subjected to non-compartmental approach.
# [2] = test system: Balb/c mice and tumor bearing mice tissues; assay: Tissue histopathology after 8 Gy TBI; type: in vivo, mouse
# Experimental: The hepatic, spleen and small intestine specimens were collected from Balb/c mice and tumor bearing mice three days after 8 Gy TBI with or without pre-treatment with DMA (50 mg/kg) 2 hour before TBI. Tissue specimens were fixed in 10% buffered formalin, embedded in paraffin, sectioned and stained with H&E and examined using an upright trinocular microscope attached to a CCD camera.
# [3] = kidney, Oral 100 mg/kg, read-out: Tissue DMA concentration, Kidney
# [4] = liver, iv, i.v. 50 mg/kg, read-out: Tissue DMA concentration, Liver
# [5] = liver, Oral 100 mg/kg, read-out: Tissue DMA concentration, Liver
# [6] = lung, iv, i.v. 50 mg/kg, read-out: Tissue DMA concentration, Lung
# [7] = lung, Oral 100 mg/kg, read-out: Tissue DMA concentration, Lung
# [8] = spleen, iv, i.v. 50 mg/kg, read-out: Tissue DMA concentration, Spleen
# [9] = spleen, Oral 100 mg/kg, read-out: Tissue DMA concentration, Spleen
# [10] = 50 mg/kg i.v. before 8Gy TBI, 3 days postirradiation
# [11] = melanoma TBM, 50 mg/kg i.v., 8Gy TBI
smiles,measurement,setting,value
"COc1ccc(-c2nc3cc(-c4nc5cc(N6CCN(C)CC6)ccc5[nH]4)ccc3[nH]2)cc1OC [DMA, 5-(4-methylpiperazin-1-yl)-2-[2′-(3,4-dimethoxyphenyl)-5′-benzimidazolyl]benzimidazole]",concentration at 1 h,"[1]; kidney, Oral 100 mg/kg, 1 h, read-out: Tissue DMA concentration, Kidney",342 ng/g
same,concentration at 2 h,[1]; [3],1020 ng/g
same,concentration at 4 h,"[1]; kidney, Oral 100 mg/kg, 4 h, read-out: Tissue DMA concentration, Kidney",1530 ng/g
same,concentration at 6 h,"[1]; kidney, Oral 100 mg/kg, 6 h, read-out: Tissue DMA concentration, Kidney",643 ng/g
same,concentration at 16 h,[1]; [3],193 ng/g
same,concentration at 1 h,"[1]; liver, intravenous, 50 mg/kg i.v., read-out: Concentration achieved in liver",41600 ng/g
same,concentration at 1 h,"[1]; liver, iv, i.v. 50 mg/kg, 1 h, read-out: Tissue DMA concentration, Liver",41600 ng/g
same,concentration at 2 h,[1]; [4],2000 ng/g
same,concentration at 4 h,"[1]; liver, iv, i.v. 50 mg/kg, 4 h, read-out: Tissue DMA concentration, Liver",30100 ng/g
same,concentration at 6 h,"[1]; liver, iv, i.v. 50 mg/kg, 6 h, read-out: Tissue DMA concentration, Liver",40100 ng/g
same,concentration at 16 h,[1]; [4],22200 ng/g
same,half-life,"[1]; liver, read-out: Half life, Liver (converted)",4 h
same,Tmax,"[1]; liver, read-out: Tmax, Liver",4 h
same,concentration at 1 h,"[1]; liver, Oral 100 mg/kg, 1 h, read-out: Tissue DMA concentration, Liver",161 ng/g
same,concentration at 2 h,[1]; [5],415 ng/g
same,concentration at 4 h,"[1]; liver, Oral 100 mg/kg, 4 h, read-out: Tissue DMA concentration, Liver",2230 ng/g
same,concentration at 6 h,"[1]; liver, Oral 100 mg/kg, 6 h, read-out: Tissue DMA concentration, Liver",735 ng/g
same,concentration at 16 h,[1]; [5],691 ng/g
same,concentration at 24 h,[1]; [5],192 ng/g
same,concentration at 1 h,"[1]; lung, intravenous, 50 mg/kg i.v., read-out: Concentration achieved in lung",109000 ng/g
same,concentration at 1 h,"[1]; lung, iv, i.v. 50 mg/kg, 1 h, read-out: Tissue DMA concentration, Lung",109000 ng/g
same,concentration at 2 h,[1]; [6],2340 ng/g
same,concentration at 4 h,"[1]; lung, iv, i.v. 50 mg/kg, 4 h, read-out: Tissue DMA concentration, Lung",1770 ng/g
same,concentration at 6 h,"[1]; lung, iv, i.v. 50 mg/kg, 6 h, read-out: Tissue DMA concentration, Lung",1340 ng/g
same,concentration at 16 h,[1]; [6],993 ng/g
same,concentration at 24 h,[1]; [6],730 ng/g
same,concentration at 4 h,"[1]; lung, 100 mg/kg oral, at 4 h, read-out: Concentration reached in lung",1000 ng/g
same,concentration at 1 h,"[1]; lung, Oral 100 mg/kg, 1 h, read-out: Tissue DMA concentration, Lung",211 ng/g
same,concentration at 2 h,[1]; [7],436 ng/g
same,concentration at 4 h,"[1]; lung, Oral 100 mg/kg, 4 h, read-out: Tissue DMA concentration, Lung",1000 ng/g
same,concentration at 6 h,"[1]; lung, Oral 100 mg/kg, 6 h, read-out: Tissue DMA concentration, Lung",538 ng/g
same,concentration at 16 h,[1]; [7],188 ng/g
same,Cmax,"[1]; small intestine, read-out: Cmax, Small Intestine",106000 ng/g
same,half-life,"[1]; small intestine, read-out: Half life, Small Intestine (converted)",1.9 h
same,Tmax,"[1]; small intestine, read-out: Tmax, Small Intestine",2 h
same,concentration at 6 h,"[1]; spleen, intravenous, 50 mg/kg i.v., read-out: Concentration achieved in spleen",12100 ng/g
same,concentration at 1 h,"[1]; spleen, iv, i.v. 50 mg/kg, 1 h, read-out: Tissue DMA concentration, Spleen",6970 ng/g
same,concentration at 2 h,[1]; [8],6450 ng/g
same,concentration at 4 h,"[1]; spleen, iv, i.v. 50 mg/kg, 4 h, read-out: Tissue DMA concentration, Spleen",2090 ng/g
same,concentration at 6 h,"[1]; spleen, iv, i.v. 50 mg/kg, 6 h, read-out: Tissue DMA concentration, Spleen",12100 ng/g
same,concentration at 16 h,[1]; [8],9600 ng/g
same,concentration at 1 h,"[1]; spleen, 50 mg/kg intravenous, read-out: C1 hr, Spleen",6970 ng/g
same,Cmax,"[1]; spleen, read-out: Cmax, Spleen",1310 ng/g
same,half-life,"[1]; spleen, read-out: Half life, Spleen (converted)",4.2 h
same,Tmax,"[1]; spleen, read-out: Tmax, Spleen",2 h
same,concentration at 1 h,"[1]; spleen, Oral 100 mg/kg, 1 h, read-out: Tissue DMA concentration, Spleen",401 ng/g
same,concentration at 2 h,[1]; [9],1310 ng/g
same,concentration at 4 h,"[1]; spleen, Oral 100 mg/kg, 4 h, read-out: Tissue DMA concentration, Spleen",681 ng/g
same,concentration at 6 h,"[1]; spleen, Oral 100 mg/kg, 6 h, read-out: Tissue DMA concentration, Spleen",558 ng/g
same,concentration at 16 h,[1]; [9],254 ng/g
same,"Tissue DMA concentration, Intestine","[1]; i.v. 50 mg/kg, 1 h",1260000 ng/g of tissue
same,Tissue accumulation,[1]; oral and i.v.,preferential accumulation in small intestine
same,Intestine histology,[2]; [10],restored the crypts and villi architecture
same,Liver histology,[2]; [10],reduction in the number of pyknotic and inflammatory kupffer cells
same,Spleen histology,[2]; [10],restored the white pulp
same,"Intestine histology, tumor bearing mice",[2]; [11],intact better heighted villi and crypts
same,"Lung alveolar structure, tumor bearing mice",[2]; [11],less destructured
same,"Spleen histology, tumor bearing mice",[2]; [11],structural retention through white and red pulp protection

# — patent US10016515B2, “DMA, a bis-benzimidazole, confers radioprotection to the intestine via Akt/NFκB dual pathway activation” (Jawaharlal Nehru University, priority 2016, dated 2018)
